Test results taken from ChEMBL document CHEMBL1201862, “PubChem BioAssay data set” (2004).
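Compound exposure: 48 hours, 5 concentrations, 96-well plates. GI50 is the concentration that inhibits growth by half.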 Calls of active or inactive are those of the source. No stated cut-off is given here; in the data, active = GI50 up to about 1.1 µM and inactive = higher.

Columns and labels:
Experiment in all cases: DTP human tumour cell line panel, 48 h
ACHN = test system: ACHN
NCI-H522 = test system: NCI-H522
NCI/ADR-RES = test system: NCI/ADR-RES
BT-549 = test system: BT-549
LOX IMVI = test system: LOX IMVI
A549 = test system: A549
HOP-62 = test system: HOP-62
SNB-19 = test system: SNB-19
COLO 205 = test system: COLO 205
SK-MEL-2 = test system: SK-MEL-2
SW-620 = test system: SW-620
Hs-578T = test system: Hs-578T
SK-MEL-5 = test system: SK-MEL-5
HT-29 = test system: HT-29
SK-OV-3 = test system: SK-OV-3
TK-10 = test system: TK-10
M14 = test system: M14
HOP-92 = test system: HOP-92
SR = test system: SR

Row | SMILES | GI50 (ACHN) | GI50 (NCI-H522) | GI50 (NCI/ADR-RES) | GI50 (BT-549) | GI50 (LOX IMVI) | GI50 (A549) | GI50 (HOP-62) | GI50 (SNB-19) | GI50 (COLO 205) | GI50 (SK-MEL-2) | GI50 (SW-620) | GI50 (Hs-578T) | GI50 (SK-MEL-5) | GI50 (HT-29) | GI50 (SK-OV-3) | GI50 (TK-10) | GI50 (M14) | GI50 (HOP-92) | GI50 (SR)
1 | Cc1cc(S(=O)(=O)Nc2n[nH]c(Nc3ccccc3)n2)c(S)cc1Cl | > 10 µM (inactive) | > 10 µM (inactive) | > 10 µM (inactive) | > 10 µM (inactive) | > 10 µM (inactive) | > 10 µM (inactive) | > 10 µM (inactive) | > 10 µM (inactive) | > 10 µM (inactive) | > 10 µM (inactive) | > 10 µM (inactive) | > 10 µM (inactive) | > 10 µM (inactive) | > 10 µM (inactive) | > 10 µM (inactive) | > 10 µM (inactive) | > 10 µM (inactive) |  | 
2 | O=C1CCCc2cc3c(cc21)CC1(C3)Cc2ccc3c(c2C1)C(=O)CCC3 (stereo unspecified) | 5.18 µM (inactive) | 20.9 µM (inactive) | 6.25 µM (inactive) |  | 11.7 µM (inactive) | 21.1 µM (inactive) | 67.9 µM (inactive) | 67.6 µM (inactive) | 14.4 µM (inactive) | 24.2 µM (inactive) | 15.6 µM (inactive) | 65.6 µM (inactive) | 2.2 µM (inactive) | 16.3 µM (inactive) | > 100 µM (inactive) | 23.9 µM (inactive) | 12.7 µM (inactive) | 21.3 µM (inactive) | 7.45 µM (inactive)
3 | CCOC(=O)C1=C(N2CCCC2)C(=O)C(C(=O)OCC)C1 (stereo unspecified) | > 100 µM (inactive) | > 100 µM (inactive) | > 100 µM (inactive) | > 100 µM (inactive) | > 100 µM (inactive) | > 100 µM (inactive) | > 100 µM (inactive) | > 100 µM (inactive) | > 100 µM (inactive) | > 100 µM (inactive) | > 100 µM (inactive) |  | > 100 µM (inactive) |  | > 100 µM (inactive) | > 100 µM (inactive) | > 100 µM (inactive) | > 100 µM (inactive) | 
4 | COC(=O)c1ccccc1C1=C([N+](=O)[O-])C(c2cccc(Br)c2)C(C#N)=C(N)O1 (stereo unspecified) | 23.6 µM (inactive) | 13.6 µM (inactive) | 23.3 µM (inactive) |  | 19.4 µM (inactive) | > 100 µM (inactive) | 33 µM (inactive) | 91.6 µM (inactive) | 33 µM (inactive) | > 100 µM (inactive) | 25.8 µM (inactive) | 18.3 µM (inactive) | 86.5 µM (inactive) | 43.5 µM (inactive) | > 100 µM (inactive) | 46.5 µM (inactive) | 28 µM (inactive) | 21.5 µM (inactive) | 18.2 µM (inactive)
5 | O=C(/C=C1/Nc2ccc([N+](=O)[O-])cc2N/C1=C/C(=O)c1ccc(Cl)cc1)c1ccc(Cl)cc1 | > 100 µM (inactive) | 4.41 µM (inactive) | 43.2 µM (inactive) | > 100 µM (inactive) |  | > 100 µM (inactive) | > 100 µM (inactive) | > 100 µM (inactive) | > 100 µM (inactive) | 13.6 µM (inactive) |  |  | 33.3 µM (inactive) | > 100 µM (inactive) |  | > 100 µM (inactive) | > 100 µM (inactive) |  | > 100 µM (inactive)
6 | Nc1cnc(Nc2cccc3ccccc23)o1 | > 10 µM (inactive) | > 10 µM (inactive) | > 10 µM (inactive) |  | > 10 µM (inactive) | > 10 µM (inactive) | > 10 µM (inactive) | > 10 µM (inactive) | > 10 µM (inactive) | > 10 µM (inactive) | > 10 µM (inactive) | > 10 µM (inactive) | > 10 µM (inactive) | > 10 µM (inactive) | > 10 µM (inactive) | > 10 µM (inactive) | > 10 µM (inactive) |  | 
7 | OCCC/N=C1N=C(Cl)/C(=C\c2ccccc2)N\1 | > 100 µM (inactive) | > 100 µM (inactive) | > 100 µM (inactive) |  | > 100 µM (inactive) | > 100 µM (inactive) |  | > 100 µM (inactive) | > 100 µM (inactive) |  | > 100 µM (inactive) | > 100 µM (inactive) | > 100 µM (inactive) | > 100 µM (inactive) | > 100 µM (inactive) | > 100 µM (inactive) | > 100 µM (inactive) | > 100 µM (inactive) | > 100 µM (inactive)
8 | O=c1c2nc[nH]c2n(-c2ccccc2)c(=S)n1-c1ccccc1 | > 100 µM (inactive) | > 100 µM (inactive) | > 100 µM (inactive) | > 100 µM (inactive) | > 100 µM (inactive) | > 100 µM (inactive) | > 100 µM (inactive) |  | > 100 µM (inactive) | > 100 µM (inactive) | > 100 µM (inactive) |  | > 100 µM (inactive) | > 100 µM (inactive) | > 100 µM (inactive) | > 100 µM (inactive) | > 100 µM (inactive) |  | > 100 µM (inactive)
9 | CCOCCOCCOCc1nc(C#N)c(N)o1 | > 100 µM (inactive) | 93.1 µM (inactive) | > 100 µM (inactive) | > 100 µM (inactive) | > 100 µM (inactive) | > 100 µM (inactive) | > 100 µM (inactive) |  | > 100 µM (inactive) | > 100 µM (inactive) | > 100 µM (inactive) |  | > 100 µM (inactive) | > 100 µM (inactive) | > 100 µM (inactive) | > 100 µM (inactive) | > 100 µM (inactive) |  | > 100 µM (inactive)
10 | Nc1ccc2ccc(-c3ccc[nH]3)nc2n1 | > 100 µM (inactive) | > 100 µM (inactive) | > 100 µM (inactive) | > 100 µM (inactive) | > 100 µM (inactive) | > 100 µM (inactive) | > 100 µM (inactive) | > 100 µM (inactive) | > 100 µM (inactive) | > 100 µM (inactive) | > 100 µM (inactive) |  | > 100 µM (inactive) |  | > 100 µM (inactive) | > 100 µM (inactive) | > 100 µM (inactive) | > 100 µM (inactive) | 
11 | N#CC(c1cc(Cl)ncn1)c1nc2cc(C(F)(F)F)ccc2s1 (stereo unspecified) | 13.6 µM (inactive) | 1.24 µM (inactive) | 3.08 µM (inactive) | 3.09 µM (inactive) | 3.57 µM (inactive) | 6.01 µM (inactive) | 13.8 µM (inactive) | 3.83 µM (inactive) | 3.35 µM (inactive) |  | 5.37 µM (inactive) |  | 9.57 µM (inactive) | 3.39 µM (inactive) | 17.5 µM (inactive) | 6.15 µM (inactive) | 4.09 µM (inactive) | 2.14 µM (inactive) | 
12 | CCOC(=O)c1sc2c(c1OC(=O)c1ccccc1)c(=O)n(-c1ccccc1)c(=S)n2-c1ccccc1 | 32 µM (inactive) | 23.6 µM (inactive) | 19.1 µM (inactive) |  | 40.3 µM (inactive) | 26.1 µM (inactive) | 22.9 µM (inactive) | 40.3 µM (inactive) | > 100 µM (inactive) |  | 44.6 µM (inactive) | 23.6 µM (inactive) | 20.7 µM (inactive) | 19.2 µM (inactive) | 38.2 µM (inactive) | 70.1 µM (inactive) | 19.9 µM (inactive) | 25.7 µM (inactive) | 
13 | CN1CCN(Cn2nc(-c3ccccc3)n(/N=C/c3ccc(-c4ccc(Cl)cc4Cl)o3)c2=S)CC1 |  | 28.2 µM (inactive) | 16 µM (inactive) |  | 13 µM (inactive) |  | 11.4 µM (inactive) |  |  | 20.7 µM (inactive) | 11.8 µM (inactive) | 7.91 µM (inactive) | 7.71 µM (inactive) | 12.3 µM (inactive) | 13.5 µM (inactive) | 15.1 µM (inactive) | 10.8 µM (inactive) | 8.95 µM (inactive) | 1.51 µM (inactive)
14 | C/C(=N\C1CCCCC1)c1ccccc1O | > 100 µM (inactive) | 34.2 µM (inactive) | > 100 µM (inactive) | > 100 µM (inactive) | > 100 µM (inactive) | > 100 µM (inactive) | > 100 µM (inactive) | > 100 µM (inactive) | > 100 µM (inactive) | > 100 µM (inactive) | > 100 µM (inactive) |  | > 100 µM (inactive) | > 100 µM (inactive) | > 100 µM (inactive) | > 100 µM (inactive) | > 100 µM (inactive) | > 100 µM (inactive) | > 100 µM (inactive)
15 | CCOC(=O)C(C(=O)OCC)S(C)(=O)=O | > 100 µM (inactive) | > 100 µM (inactive) |  |  | > 100 µM (inactive) | > 100 µM (inactive) | > 100 µM (inactive) | > 100 µM (inactive) | > 100 µM (inactive) | > 100 µM (inactive) | > 100 µM (inactive) |  | > 100 µM (inactive) | > 100 µM (inactive) | > 100 µM (inactive) | > 100 µM (inactive) | > 100 µM (inactive) | > 100 µM (inactive) | > 100 µM (inactive)
16 | O=c1[nH][nH]c(=O)[nH]1 |  | > 100 µM (inactive) |  |  | > 100 µM (inactive) | > 100 µM (inactive) | > 100 µM (inactive) | > 100 µM (inactive) | > 100 µM (inactive) | > 100 µM (inactive) | > 100 µM (inactive) |  | > 100 µM (inactive) | > 100 µM (inactive) | > 100 µM (inactive) | > 100 µM (inactive) | > 100 µM (inactive) | > 100 µM (inactive) | > 100 µM (inactive)
17 | COc1cc2c(cc1OCCCCCN1C(=O)c3cccc4cccc(c34)C1=O)N=C[C@@H]1CCCN1C2=O | 0.167 µM (active) | 0.0336 µM (active) | 0.421 µM (active) | 0.244 µM (active) | 0.126 µM (active) | 0.535 µM (active) | 0.262 µM (active) | 0.327 µM (active) | 0.28 µM (active) | 0.223 µM (active) | 0.278 µM (active) |  | 0.257 µM (active) | 0.286 µM (active) | 0.514 µM (active) | 0.129 µM (active) | 0.24 µM (active) | 0.142 µM (active) | < 0.01 µM (active)
